Data: patent US20240423904A1, “Systems and Methods for Controlling Chemical Reactions Using Ultrasound” (priority 2023, published 2024)

Assays:
[1] = Thermally activated release of camptothecin from mechanophore bis-initiator, 1H NMR and LCMS; assay type: physicochemical; settings: 24 h at 100° C. in toluene-d8, then diluted into 3:1 acetonitrile/methanol
Protocol: Several embodiments provide confirmation of CPT release via ^1H NMR spectroscopy and LCMS. Prior to mechanochemical activation studies, we first confirmed that camptothecin was released in polar protic solvent upon unmasking of the expected unstable furfuryl carbonate. To enable characterization, the furfuryl carbonate species was generated thermally from small molecule initiator 1-CPT. Masked furfuryl carbonate 1-CPT was dissolved in toluene-d8 and analyzed by ^1H NMR spectroscopy before and after heating for 24 h at 100° C. Comparison to spectrum of the expected maleimide fragment confirmed significant thermal retro-Diels-Alder reaction occurred under these conditions. A drop of this solution was then diluted into 3:1 acetonitrile/methanol and analyzed by LCMS (gradient of 0-50% acetonitrile/water over 4 minutes).

[2] = tested on: Raji cells; assay: MTT cell viability assay on Raji cells; assay type: cell-based; settings: Homo sapiens, 48 h, pure CPT, 2 days at 37° C.
Protocol: Raji cells were incubated in RPMI 1640 media with 10% fetal bovine serum and 1% antibacterial Penicillin/Streptomycin (PenStrep) at 37° C. and 5% CO2. An MTT colorimetric assay was used to quantify cell viability.
Raji cells were used to evaluate the effectiveness of CPT release for potential chemotherapy. Raji cells were incubated in RPMI 1640 media, with 10% fetal bovine serum and 1% antibacterial Penicillin/Streptomycin (PenStrep) at 37° C. and 5% CO2. The instructions provided by the manufacturer (Abcam) were followed to perform the MTT assay. Approximately 10,000 Raji cells suspended in 150 μL of media were seeded into each well of a 96-well plate. Subsequently, 50 μL of polymer sample (or pure CPT) at varying concentrations was added to corresponding wells. For calibration purposes, wells without cells and wells with only cells and media were also prepared, representing 0% and 100% cell viability, respectively. After 48 hours of incubation, cells were spun down inside the plate and media were carefully aspirated. Then 50 μL of serum free media and 50 μL of MTT solution were added to each well. Following a 3 h incubation, 150 μL MTT solution was added to each well. […] The absorbance at 590 nm was measured by a microplate reader (TECAN Spark) to quantify the cell viability in each well. Cell viability is calculated using eq.

[3] = Stability of free CPT upon exposure to FUS, HPLC; assay type: physicochemical; settings: FUS 10 min, presence or absence of GVs (1.4 nM)
Protocol: Experiments were performed in duplicate on a sample of CPT in water (˜3 μM). After insonation, samples were diluted 3:1 with a stock solution of IS (40 μM) and concentrations were determined from integration of the peak corresponding to CPT relative to that of the internal standard and scaled by 4/3 to account for dilution.

| SMILES | release of CPT after thermal retro-Diels-Alder reaction [1] | EC50 [2] [nM] | stability upon exposure to FUS [3] |
| --- | --- | --- | --- |
| CC[C@@]1(OC(=O)OC(C)[C@]23O[C@](COC(=O)C(C)(C)Br)(C=C2Oc2ccccc2)[C@@H]2C(=O)N(CCOC(=O)C(C)(C)Br)C(=O)[C@@H]23)C(=O)OCc2c1cc1n(c2=O)Cc2cc3ccccc3nc2-1 (stereo partly drawn) [1-CPT, ((3aR,4R,7S,7aS)-2-(2-((2-bromo-2-methylpropanoyl)oxy)ethyl)-7-(1-(((((S)-4-ethyl-3,14-dioxo-3,4,12,14-tetrahydro-1H-pyrano[3′,4′:6,7]indolizino[1,2-b]quinolin-4-yl)oxy)carbonyl)oxy)ethyl)-1,3-dioxo-6-phenoxy-1,2,3,3a,7,7a-hexahydro-4H-4,7-epoxyisoindol-4-yl)methyl 2-bromo-2-methylpropanoatebromo-2-methylpropanoate] | CPT is released | – | – |
| CC[C@@]1(O)C(=O)OCc2c1cc1n(c2=O)Cc2cc3ccccc3nc2-1 [CPT, camptothecin] | – | ~25 | stable |
